{
  "source": "paper PMC11167047",
  "about": "(Cell Death Discovery, 2024)",
  "assay_in_all_cases": "kinome screen (33PanQinase)",
  "assay_type_in_all_cases": "biochemical",
  "key": {"[1]": {"biological_target": "T1, BRAF (Homo sapiens, UniProt P15056)", "T1 construct": "purchased Reaction Biology Europe GmbH (formerly ProQinase)", "T1 sequence (P15056 whole entry)": "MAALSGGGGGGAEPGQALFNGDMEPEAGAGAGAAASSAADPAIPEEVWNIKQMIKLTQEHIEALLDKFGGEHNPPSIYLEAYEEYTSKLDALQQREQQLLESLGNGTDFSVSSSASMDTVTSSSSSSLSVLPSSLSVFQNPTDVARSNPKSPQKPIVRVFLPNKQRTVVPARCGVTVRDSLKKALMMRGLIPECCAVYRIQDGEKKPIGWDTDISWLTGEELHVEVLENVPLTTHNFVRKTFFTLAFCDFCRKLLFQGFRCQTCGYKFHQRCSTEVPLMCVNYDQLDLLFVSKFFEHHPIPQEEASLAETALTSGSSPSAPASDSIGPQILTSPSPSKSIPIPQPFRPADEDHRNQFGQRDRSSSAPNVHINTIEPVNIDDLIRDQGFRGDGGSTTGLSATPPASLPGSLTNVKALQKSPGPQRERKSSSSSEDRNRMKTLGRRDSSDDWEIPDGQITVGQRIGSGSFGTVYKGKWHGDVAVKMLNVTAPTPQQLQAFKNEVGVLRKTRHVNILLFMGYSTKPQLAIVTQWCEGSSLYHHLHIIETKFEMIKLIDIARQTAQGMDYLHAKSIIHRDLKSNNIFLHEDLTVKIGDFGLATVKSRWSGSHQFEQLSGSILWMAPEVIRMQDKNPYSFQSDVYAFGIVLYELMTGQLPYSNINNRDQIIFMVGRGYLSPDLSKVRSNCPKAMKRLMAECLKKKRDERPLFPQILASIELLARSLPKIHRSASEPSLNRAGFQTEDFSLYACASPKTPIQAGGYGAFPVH", "method": "(§1) The Kinome Screening was performed by Reaction Biology Europe GmbH (http://reactionbiology.com; Freiburg i. Br., Germany)."}, "[2]": {"biological_target": "T2, DDR2 (Homo sapiens, UniProt Q16832)", "T2 construct": "purchased Reaction Biology Europe GmbH (formerly ProQinase)", "T2 sequence (Q16832 22-855)": "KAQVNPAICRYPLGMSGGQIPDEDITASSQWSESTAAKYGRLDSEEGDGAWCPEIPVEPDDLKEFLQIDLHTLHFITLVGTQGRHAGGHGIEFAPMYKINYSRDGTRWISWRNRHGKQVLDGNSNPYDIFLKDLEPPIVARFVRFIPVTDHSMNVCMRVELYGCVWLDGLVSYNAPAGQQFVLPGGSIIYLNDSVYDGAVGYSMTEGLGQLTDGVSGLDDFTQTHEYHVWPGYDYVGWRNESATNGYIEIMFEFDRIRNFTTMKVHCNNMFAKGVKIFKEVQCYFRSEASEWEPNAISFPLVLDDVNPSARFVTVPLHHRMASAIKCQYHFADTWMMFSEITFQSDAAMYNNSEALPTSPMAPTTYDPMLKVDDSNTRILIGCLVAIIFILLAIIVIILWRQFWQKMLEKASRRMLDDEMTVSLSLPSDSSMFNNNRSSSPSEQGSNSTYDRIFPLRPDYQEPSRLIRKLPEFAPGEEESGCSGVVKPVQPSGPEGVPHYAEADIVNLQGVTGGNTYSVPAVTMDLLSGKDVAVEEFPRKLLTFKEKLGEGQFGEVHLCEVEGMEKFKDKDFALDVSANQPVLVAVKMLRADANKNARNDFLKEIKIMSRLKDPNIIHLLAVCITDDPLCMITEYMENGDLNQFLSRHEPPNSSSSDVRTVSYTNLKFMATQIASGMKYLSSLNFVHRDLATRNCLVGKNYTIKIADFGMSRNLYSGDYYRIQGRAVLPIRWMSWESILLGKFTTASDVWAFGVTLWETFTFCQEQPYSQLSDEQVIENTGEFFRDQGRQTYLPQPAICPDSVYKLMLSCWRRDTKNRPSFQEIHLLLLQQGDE", "method": "as §1"}, "[3]": {"biological_target": "T3, CDK20/CycT1 (Homo sapiens, UniProt Q8IZL9)", "T3 construct": "purchased Reaction Biology Europe GmbH (formerly ProQinase)", "method": "as §1"}, "[4]": {"biological_target": "T4, DAPK2 (Homo sapiens, UniProt Q9UIK4)", "T4 construct": "purchased Reaction Biology Europe GmbH (formerly ProQinase)", "T4 sequence (Q9UIK4 whole entry)": "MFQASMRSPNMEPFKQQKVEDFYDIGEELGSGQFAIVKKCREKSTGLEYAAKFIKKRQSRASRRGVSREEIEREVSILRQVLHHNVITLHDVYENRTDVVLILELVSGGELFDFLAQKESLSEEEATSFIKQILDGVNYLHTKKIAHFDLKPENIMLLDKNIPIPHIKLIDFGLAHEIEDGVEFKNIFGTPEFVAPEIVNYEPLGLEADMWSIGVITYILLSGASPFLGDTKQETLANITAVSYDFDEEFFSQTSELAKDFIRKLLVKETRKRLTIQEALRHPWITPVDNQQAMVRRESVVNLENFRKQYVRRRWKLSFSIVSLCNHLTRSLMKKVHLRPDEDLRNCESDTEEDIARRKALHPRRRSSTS", "method": "as §1"}, "[5]": {"biological_target": "T5, DAPK1 (Homo sapiens, UniProt P53355)", "T5 construct": "purchased Reaction Biology Europe GmbH (formerly ProQinase)", "T5 sequence (P53355 whole entry)": "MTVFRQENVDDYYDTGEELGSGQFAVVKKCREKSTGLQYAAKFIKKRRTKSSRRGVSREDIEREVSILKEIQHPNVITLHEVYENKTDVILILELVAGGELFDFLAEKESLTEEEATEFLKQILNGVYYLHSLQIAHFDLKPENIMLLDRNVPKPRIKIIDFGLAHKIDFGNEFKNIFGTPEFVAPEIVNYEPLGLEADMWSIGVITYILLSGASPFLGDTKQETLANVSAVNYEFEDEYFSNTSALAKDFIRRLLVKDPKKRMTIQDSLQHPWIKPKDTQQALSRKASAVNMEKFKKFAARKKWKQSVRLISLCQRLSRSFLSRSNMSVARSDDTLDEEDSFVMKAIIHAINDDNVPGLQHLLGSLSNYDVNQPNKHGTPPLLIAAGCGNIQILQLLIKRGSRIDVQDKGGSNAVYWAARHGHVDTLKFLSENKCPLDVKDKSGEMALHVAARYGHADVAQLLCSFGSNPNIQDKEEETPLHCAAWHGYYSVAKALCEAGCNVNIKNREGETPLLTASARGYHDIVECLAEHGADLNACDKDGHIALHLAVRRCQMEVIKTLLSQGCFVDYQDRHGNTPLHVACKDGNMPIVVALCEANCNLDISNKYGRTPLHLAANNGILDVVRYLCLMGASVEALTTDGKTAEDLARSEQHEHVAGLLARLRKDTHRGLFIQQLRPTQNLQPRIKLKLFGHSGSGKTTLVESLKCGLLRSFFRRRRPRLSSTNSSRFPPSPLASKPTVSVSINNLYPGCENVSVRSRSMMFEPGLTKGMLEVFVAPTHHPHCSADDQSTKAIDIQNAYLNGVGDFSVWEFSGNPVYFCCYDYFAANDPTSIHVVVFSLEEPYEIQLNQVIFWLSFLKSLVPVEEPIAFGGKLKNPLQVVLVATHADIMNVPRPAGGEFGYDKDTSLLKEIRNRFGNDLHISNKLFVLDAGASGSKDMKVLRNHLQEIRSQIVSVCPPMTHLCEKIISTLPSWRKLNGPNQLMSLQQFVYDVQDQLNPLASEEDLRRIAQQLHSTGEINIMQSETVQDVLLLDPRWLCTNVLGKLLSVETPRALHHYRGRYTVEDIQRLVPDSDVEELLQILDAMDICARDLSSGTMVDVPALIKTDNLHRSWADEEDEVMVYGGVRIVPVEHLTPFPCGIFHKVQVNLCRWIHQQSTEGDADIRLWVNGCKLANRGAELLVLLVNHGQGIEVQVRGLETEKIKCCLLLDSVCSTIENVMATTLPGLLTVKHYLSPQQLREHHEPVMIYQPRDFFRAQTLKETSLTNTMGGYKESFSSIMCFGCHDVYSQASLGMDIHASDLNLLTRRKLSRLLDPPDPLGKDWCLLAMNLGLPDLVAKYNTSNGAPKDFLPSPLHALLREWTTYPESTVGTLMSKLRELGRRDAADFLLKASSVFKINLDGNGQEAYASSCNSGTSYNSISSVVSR", "method": "as §1"}, "[6]": {"biological_target": "T6, RET (Homo sapiens, UniProt P07949)", "T6 construct": "purchased Reaction Biology Europe GmbH (formerly ProQinase)", "T6 sequence (P07949 29-1114)": "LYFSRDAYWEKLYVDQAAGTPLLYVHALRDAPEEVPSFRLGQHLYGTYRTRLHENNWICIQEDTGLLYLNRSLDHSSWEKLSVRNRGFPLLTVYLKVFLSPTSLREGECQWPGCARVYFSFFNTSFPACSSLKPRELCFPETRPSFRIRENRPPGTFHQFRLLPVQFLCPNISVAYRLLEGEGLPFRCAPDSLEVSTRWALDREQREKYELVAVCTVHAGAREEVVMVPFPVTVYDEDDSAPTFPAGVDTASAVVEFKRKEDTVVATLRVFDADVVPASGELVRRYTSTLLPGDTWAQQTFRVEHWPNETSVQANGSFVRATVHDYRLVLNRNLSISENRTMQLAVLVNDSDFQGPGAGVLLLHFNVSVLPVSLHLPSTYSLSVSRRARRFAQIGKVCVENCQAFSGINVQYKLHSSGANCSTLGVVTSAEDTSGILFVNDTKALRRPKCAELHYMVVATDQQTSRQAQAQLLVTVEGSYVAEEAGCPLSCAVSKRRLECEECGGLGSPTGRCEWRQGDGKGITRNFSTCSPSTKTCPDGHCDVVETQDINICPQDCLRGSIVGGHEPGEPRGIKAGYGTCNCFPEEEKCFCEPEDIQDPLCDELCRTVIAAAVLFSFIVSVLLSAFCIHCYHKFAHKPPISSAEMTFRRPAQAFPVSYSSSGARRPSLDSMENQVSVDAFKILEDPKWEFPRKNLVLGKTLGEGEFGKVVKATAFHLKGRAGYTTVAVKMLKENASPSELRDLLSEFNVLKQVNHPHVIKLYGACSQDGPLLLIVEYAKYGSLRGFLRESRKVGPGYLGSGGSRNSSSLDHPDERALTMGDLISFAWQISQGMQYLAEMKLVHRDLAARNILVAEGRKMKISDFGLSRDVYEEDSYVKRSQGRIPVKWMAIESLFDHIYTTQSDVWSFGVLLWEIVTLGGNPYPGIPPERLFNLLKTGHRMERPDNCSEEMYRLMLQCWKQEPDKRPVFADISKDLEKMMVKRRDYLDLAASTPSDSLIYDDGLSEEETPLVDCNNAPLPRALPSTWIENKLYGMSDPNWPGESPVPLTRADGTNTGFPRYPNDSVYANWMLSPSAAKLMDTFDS", "method": "as §1"}, "[7]": {"biological_target": "T7, CAMK4 (Homo sapiens, UniProt Q16566)", "T7 construct": "purchased Reaction Biology Europe GmbH (formerly ProQinase)", "T7 sequence (Q16566 1-473)": "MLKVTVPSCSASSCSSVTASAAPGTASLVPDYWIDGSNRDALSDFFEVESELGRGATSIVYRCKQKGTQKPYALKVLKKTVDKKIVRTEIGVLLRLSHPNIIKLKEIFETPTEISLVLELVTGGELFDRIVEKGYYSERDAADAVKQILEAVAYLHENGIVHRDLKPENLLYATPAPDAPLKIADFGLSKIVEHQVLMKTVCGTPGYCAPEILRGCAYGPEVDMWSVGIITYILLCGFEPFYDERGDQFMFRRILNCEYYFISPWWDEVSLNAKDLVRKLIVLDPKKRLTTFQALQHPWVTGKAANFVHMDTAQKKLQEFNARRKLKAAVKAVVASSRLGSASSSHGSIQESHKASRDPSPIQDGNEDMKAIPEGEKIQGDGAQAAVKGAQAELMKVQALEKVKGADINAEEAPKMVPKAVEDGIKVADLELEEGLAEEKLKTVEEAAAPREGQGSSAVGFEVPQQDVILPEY", "method": "as §1"}, "[8]": {"biological_target": "T8, TYRO3 (Homo sapiens, UniProt Q06418)", "T8 construct": "purchased Reaction Biology Europe GmbH (formerly ProQinase)", "T8 sequence (Q06418 41-890)": "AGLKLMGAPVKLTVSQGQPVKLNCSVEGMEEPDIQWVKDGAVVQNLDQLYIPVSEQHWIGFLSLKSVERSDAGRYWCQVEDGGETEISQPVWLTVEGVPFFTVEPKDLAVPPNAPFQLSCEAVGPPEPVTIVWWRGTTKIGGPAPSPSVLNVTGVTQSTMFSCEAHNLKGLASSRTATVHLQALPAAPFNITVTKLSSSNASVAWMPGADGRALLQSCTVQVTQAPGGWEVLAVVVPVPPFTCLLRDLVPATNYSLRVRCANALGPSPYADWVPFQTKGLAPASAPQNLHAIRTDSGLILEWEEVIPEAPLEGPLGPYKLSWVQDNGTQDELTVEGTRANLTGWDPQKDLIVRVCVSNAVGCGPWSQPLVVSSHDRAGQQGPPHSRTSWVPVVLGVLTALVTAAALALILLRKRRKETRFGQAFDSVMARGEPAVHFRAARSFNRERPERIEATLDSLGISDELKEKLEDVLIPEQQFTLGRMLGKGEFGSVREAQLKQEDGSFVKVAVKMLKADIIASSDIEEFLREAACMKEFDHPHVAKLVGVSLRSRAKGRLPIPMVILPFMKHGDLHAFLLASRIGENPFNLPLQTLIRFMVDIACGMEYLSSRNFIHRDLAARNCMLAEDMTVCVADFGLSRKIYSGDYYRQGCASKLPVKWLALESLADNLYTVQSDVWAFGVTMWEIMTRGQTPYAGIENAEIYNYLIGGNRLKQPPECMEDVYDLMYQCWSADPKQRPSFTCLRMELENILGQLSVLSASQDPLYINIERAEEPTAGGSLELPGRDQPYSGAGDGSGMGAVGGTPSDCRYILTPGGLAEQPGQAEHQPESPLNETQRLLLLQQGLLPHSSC", "method": "as §1"}, "[9]": {"biological_target": "T9, BLK (Homo sapiens, UniProt P51451)", "T9 construct": "purchased Reaction Biology Europe GmbH (formerly ProQinase)", "T9 sequence (P51451 whole entry)": "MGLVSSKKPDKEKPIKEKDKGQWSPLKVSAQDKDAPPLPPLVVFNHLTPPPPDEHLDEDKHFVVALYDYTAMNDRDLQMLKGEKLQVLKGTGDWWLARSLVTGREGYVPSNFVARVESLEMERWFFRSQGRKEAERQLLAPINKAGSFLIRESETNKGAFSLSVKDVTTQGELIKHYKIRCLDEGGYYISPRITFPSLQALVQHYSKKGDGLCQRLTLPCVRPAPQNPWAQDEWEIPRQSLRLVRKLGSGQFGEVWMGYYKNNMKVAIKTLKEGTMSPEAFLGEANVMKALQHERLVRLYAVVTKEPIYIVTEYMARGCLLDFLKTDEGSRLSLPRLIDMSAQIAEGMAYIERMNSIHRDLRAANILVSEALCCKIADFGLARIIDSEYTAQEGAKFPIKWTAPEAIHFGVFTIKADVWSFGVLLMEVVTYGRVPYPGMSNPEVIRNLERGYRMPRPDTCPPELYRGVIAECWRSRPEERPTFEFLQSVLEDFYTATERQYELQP", "method": "as §1"}, "[10]": {"biological_target": "T10, HCK (Homo sapiens, UniProt P08631)", "T10 construct": "purchased Reaction Biology Europe GmbH (formerly ProQinase)", "T10 sequence (P08631 whole entry)": "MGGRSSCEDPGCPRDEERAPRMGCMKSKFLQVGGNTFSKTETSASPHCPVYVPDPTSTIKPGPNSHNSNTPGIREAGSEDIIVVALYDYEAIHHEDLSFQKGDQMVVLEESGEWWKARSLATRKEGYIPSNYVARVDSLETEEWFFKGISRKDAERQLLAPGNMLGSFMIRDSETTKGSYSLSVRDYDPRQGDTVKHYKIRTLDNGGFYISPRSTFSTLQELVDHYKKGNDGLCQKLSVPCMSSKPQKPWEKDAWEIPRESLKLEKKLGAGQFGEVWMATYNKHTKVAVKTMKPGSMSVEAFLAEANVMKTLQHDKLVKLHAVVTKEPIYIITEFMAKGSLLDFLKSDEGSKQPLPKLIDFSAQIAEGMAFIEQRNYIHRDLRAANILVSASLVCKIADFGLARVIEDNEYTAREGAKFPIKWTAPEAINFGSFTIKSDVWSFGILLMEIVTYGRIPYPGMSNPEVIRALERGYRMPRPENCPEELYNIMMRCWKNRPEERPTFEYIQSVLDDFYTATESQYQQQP", "method": "as §1"}},
  "data": [
    {"smiles": "COc1ccnc2[nH]cc(-c3cc(N)nc(N)c3)c12", "note": "[meriolin 16]", "values": [
      {"measurement": "residual kinase activity", "setting": "[1]; 0.03 µM", "result": "94 % of control"},
      {"measurement": "residual kinase activity", "setting": "[2]; 0.03 µM", "result": "105 % of control"},
      {"measurement": "residual kinase activity", "setting": "[2]; 0.3 µM", "result": "93 % of control"},
      {"measurement": "residual kinase activity", "setting": "[3]; 0.03 µM", "result": "36 % of control"},
      {"measurement": "residual kinase activity", "setting": "[3]; 0.3 µM", "result": "17 % of control"},
      {"measurement": "residual kinase activity", "setting": "[4]; 0.03 µM", "result": "106 % of control"},
      {"measurement": "residual kinase activity", "setting": "[4]; 0.3 µM", "result": "78 % of control"},
      {"measurement": "residual kinase activity", "setting": "[5]; 0.03 µM", "result": "112 % of control"},
      {"measurement": "residual kinase activity", "setting": "[5]; 0.3 µM", "result": "72 % of control"},
      {"measurement": "residual kinase activity", "setting": "[6]; 0.03 µM", "result": "106 % of control"},
      {"measurement": "residual kinase activity", "setting": "[6]; 0.3 µM", "result": "100 % of control"},
      {"measurement": "residual kinase activity", "setting": "[7]; 0.03 µM", "result": "96 % of control"},
      {"measurement": "residual kinase activity", "setting": "[7]; 0.3 µM", "result": "92 % of control"},
      {"measurement": "residual kinase activity", "setting": "[8]; 0.03 µM", "result": "104 % of control"},
      {"measurement": "residual kinase activity", "setting": "[8]; 0.3 µM", "result": "89 % of control"},
      {"measurement": "residual kinase activity", "setting": "[9]; 0.03 µM", "result": "126 % of control"},
      {"measurement": "residual kinase activity", "setting": "[9]; 0.3 µM", "result": "95 % of control"},
      {"measurement": "residual kinase activity", "setting": "[10]; 0.03 µM", "result": "106 % of control"},
      {"measurement": "residual kinase activity", "setting": "[10]; 0.3 µM", "result": "81 % of control"}
    ]},
    {"smiles": "c1ccc(CNc2cc(-c3c[nH]c4ncccc34)ccn2)cc1", "note": "[meriolin 36]", "values": [
      {"measurement": "residual kinase activity", "setting": "[1]; 0.3 µM", "result": "66 % of control"},
      {"measurement": "residual kinase activity", "setting": "[1]; 3 µM", "result": "50 % of control"},
      {"measurement": "residual kinase activity", "setting": "[2]; 0.3 µM", "result": "59 % of control"},
      {"measurement": "residual kinase activity", "setting": "[2]; 3 µM", "result": "17 % of control"},
      {"measurement": "residual kinase activity", "setting": "[3]; 0.3 µM", "result": "19 % of control"},
      {"measurement": "residual kinase activity", "setting": "[3]; 3 µM", "result": "10 % of control"},
      {"measurement": "residual kinase activity", "setting": "[4]; 0.3 µM", "result": "118 % of control"},
      {"measurement": "residual kinase activity", "setting": "[4]; 3 µM", "result": "67 % of control"},
      {"measurement": "residual kinase activity", "setting": "[5]; 0.3 µM", "result": "119 % of control"},
      {"measurement": "residual kinase activity", "setting": "[5]; 3 µM", "result": "64 % of control"},
      {"measurement": "residual kinase activity", "setting": "[6]; 0.3 µM", "result": "61 % of control"},
      {"measurement": "residual kinase activity", "setting": "[6]; 3 µM", "result": "12 % of control"},
      {"measurement": "residual kinase activity", "setting": "[7]; 0.3 µM", "result": "92 % of control"},
      {"measurement": "residual kinase activity", "setting": "[7]; 3 µM", "result": "73 % of control"},
      {"measurement": "residual kinase activity", "setting": "[8]; 0.3 µM", "result": "94 % of control"},
      {"measurement": "residual kinase activity", "setting": "[8]; 3 µM", "result": "64 % of control"},
      {"measurement": "residual kinase activity", "setting": "[9]; 0.3 µM", "result": "88 % of control"},
      {"measurement": "residual kinase activity", "setting": "[9]; 3 µM", "result": "13 % of control"},
      {"measurement": "residual kinase activity", "setting": "[10]; 0.3 µM", "result": "75 % of control"},
      {"measurement": "residual kinase activity", "setting": "[10]; 3 µM", "result": "25 % of control"}
    ]}
  ]
}
